Here are results for 7 molecules from patent US9133212B1, “Inhibitors of hemeprotein-catalyzed lipid peroxidation” (Vanderbilt University, priority 2005, dated 2015).

Like-named read-outs stand apart in the source and are kept apart here. A value given as a limit tells only on which side of the number the result lay.

For data set [1], the system named is HepG2 liver cell line. Here is the method:
HepG2 were plated in multiple 96-well plates at 2×10^4 cells per well and pretreated with ethanol 100 μM for 2 hours. […] Cell viability after 24 h was determined by measuring ATP levels by luminescence assay.

Data set [2] has as its target PGHS-1 (COX-1) (Homo sapiens, UniProt P23219). Description: Inhibition of PGHS-1 (COX-1), [14C]arachidonic acid oxidation. The format is biochemical. Conditions: for IC50: in vitro system. Here is the method:
At this time the reaction was initiated by addition of 0.5 μM of [14C]arachidonic acid. After 8 seconds, the reaction was stopped by adding an ice cold mixture of diethyl ether/methanol/4.0 M citric acid. PGHS-1 activity was expressed as percent oxidation of arachidonic acid compared with control where no inhibitor was added. Each data point represents the mean±S.E.M of six values.
(§1) Hematin-reconstituted COX-1 (5.4 nM) or COX-2 (10.8 nM) in Tris HCl 100 mM, pH 8.0, 500 μM phenol, was pre-incubated with N-dimethyl pyrimidinol (DM, plain line) or N-dimethyl pyridinol (DR, dashed line) at varying concentrations at 37° C. for 20 minutes. At this time the reaction was initiated by addition of 0.5 μM of [14C] arachidonic acid. After 8 seconds, the reaction was stopped by adding an ice cold mixture of diethyl ether/methanol/4.0 M citric acid. PGHS-1 activity was expressed as percent oxidation of arachidonic acid compared with control where no inhibitor was added. Each data point represents the mean±S.E.M of six values.

Data set [3] addresses T1, PGHS-2 (COX-2) (Homo sapiens, UniProt P35354).
T1 sequence (P35354 18-604): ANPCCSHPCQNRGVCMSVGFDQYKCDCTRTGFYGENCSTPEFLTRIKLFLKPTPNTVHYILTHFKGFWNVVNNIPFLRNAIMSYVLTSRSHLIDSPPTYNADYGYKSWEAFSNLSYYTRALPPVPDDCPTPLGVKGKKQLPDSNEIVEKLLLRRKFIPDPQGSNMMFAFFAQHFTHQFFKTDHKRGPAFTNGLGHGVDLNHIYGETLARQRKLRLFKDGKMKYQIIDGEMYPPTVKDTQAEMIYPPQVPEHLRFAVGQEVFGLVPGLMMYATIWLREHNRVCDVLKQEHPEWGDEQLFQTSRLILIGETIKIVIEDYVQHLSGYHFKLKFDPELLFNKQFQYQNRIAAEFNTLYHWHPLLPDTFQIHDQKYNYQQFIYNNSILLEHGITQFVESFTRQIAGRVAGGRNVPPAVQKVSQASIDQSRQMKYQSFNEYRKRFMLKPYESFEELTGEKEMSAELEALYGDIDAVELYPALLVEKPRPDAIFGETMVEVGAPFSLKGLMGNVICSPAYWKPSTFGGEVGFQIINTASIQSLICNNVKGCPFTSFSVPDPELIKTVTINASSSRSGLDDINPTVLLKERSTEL
Description: Inhibition of PGHS-2 (COX-2), [14C]arachidonic acid oxidation. The data set is classed as biochemical. Conditions: for inhibition of PGHS-2 (COX-2), in words: compared with its PGHS-1 inhibition. How it is done:
as §1

For data set [4], the target named is T2, ferryl myoglobin (Homo sapiens, UniProt P02144).
T2 sequence (P02144 1-154): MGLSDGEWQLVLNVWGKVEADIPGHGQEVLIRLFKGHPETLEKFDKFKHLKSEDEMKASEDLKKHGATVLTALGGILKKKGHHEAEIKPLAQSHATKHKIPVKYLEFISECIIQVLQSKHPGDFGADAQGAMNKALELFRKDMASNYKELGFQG
Description: Reduction of ferryl myoglobin to ferric myoglobin. The data set is classed as biochemical. Here is the method: Ferryl myoglobin was generated by incubating ferric myoglobin 10 μM in PBS with 10 μM hydrogen peroxide until there was no more change in the peak at 421 nm. At this time, the analogs were added to the cuvette at the final concentrations indicated and spectra were recorded every 15 sec for 2 min. The initial rate of reduction was calculated as the variation of absorbance at 409 nm in the first two minutes after adding the analogs. In this period of time the rates of reduction were linear for each concentration of analog.

Data set [5] concerns HepG2 cells. As to the kind of experiment: Direct cellular toxicity (total cellular ATP levels). As to conditions: Homo sapiens, concentration causing a 50% decrease in total cellular ATP levels, read-out: Cellular Toxicity (EC50, μM ± SD). The data set is classed as cell-based. The text has this: Microsomal stability is expressed as % of unmodified compound remaining after reaction. Cellular toxicity is expressed as the con-centration causing a 50% decrease in total cellular ATP levels. Values represent means±S.E.M.

The target of data set [6] is T3, myoglobin (Mb) (Homo sapiens, UniProt P02144).
T3 sequence (P02144 1-154): T2 sequence (P02144 1-154)
Description: Inhibition of myoglobin-induced arachidonic acid oxidation. The format is biochemical. How it is done: (§2) The inhibition of the lipid peroxidation produced by myoglobin (Mb) and COX-1 by the different analogs was tested. Values represent the IC50 for each hemeprotein and are expressed as means±S.E.M. a: value reported from (1.). b: value reported from (3).

The nature of data set [7]: Microsomal stability. As to conditions: % of unmodified compound remaining after reaction.
The target in data set [8] is T4, COX-1 (Homo sapiens, UniProt P23219). Description: Inhibition of COX-1 oxidation of arachidonic acid (Example 6). The format is biochemical. How it is done: as §2
Data set [9] deals with rat model of rhabdomyolysis. Description: Rat model of rhabdomyolysis (renal failure from myoglobin-catalyzed lipid peroxidation). The format is in vivo. As to conditions: dose that produced plasma levels in the therapeutic range for humans.
The target of data set [10] is T4, COX-1. Conditions: oxidation of arachidonic acid, Table 2, footnote b; read-out: COX-1 IC50 (μM ± SEM), value reported from (3); cited from earlier work.
Data set [11] addresses hemoglobin (Homo sapiens, UniProt P68871+P69905). Description: Inhibition of hemoglobin-catalyzed lipid peroxidation. Conditions: read-out: IC50 for hemoglobin (hemoprotein-catalyzed lipid peroxidation). The data set is classed as biochemical.
The mark [12] stands for this setting: bicyclic compounds, structure table, read-out: Oxidation of AA by Mb IC50.
[13] abbreviates: oxidation of arachidonic acid, Table 2, read-out: Mb IC50 (μM ± SEM).
[14] abbreviates: bicyclic compounds, structure table, read-out: Oxidation of AA by COX-1 IC50.
The mark [15] stands for this setting: oxidation of arachidonic acid, Table 2, read-out: COX-1 IC50 (μM ± SEM).

T4 sequence (P23219 24-599, species assumed): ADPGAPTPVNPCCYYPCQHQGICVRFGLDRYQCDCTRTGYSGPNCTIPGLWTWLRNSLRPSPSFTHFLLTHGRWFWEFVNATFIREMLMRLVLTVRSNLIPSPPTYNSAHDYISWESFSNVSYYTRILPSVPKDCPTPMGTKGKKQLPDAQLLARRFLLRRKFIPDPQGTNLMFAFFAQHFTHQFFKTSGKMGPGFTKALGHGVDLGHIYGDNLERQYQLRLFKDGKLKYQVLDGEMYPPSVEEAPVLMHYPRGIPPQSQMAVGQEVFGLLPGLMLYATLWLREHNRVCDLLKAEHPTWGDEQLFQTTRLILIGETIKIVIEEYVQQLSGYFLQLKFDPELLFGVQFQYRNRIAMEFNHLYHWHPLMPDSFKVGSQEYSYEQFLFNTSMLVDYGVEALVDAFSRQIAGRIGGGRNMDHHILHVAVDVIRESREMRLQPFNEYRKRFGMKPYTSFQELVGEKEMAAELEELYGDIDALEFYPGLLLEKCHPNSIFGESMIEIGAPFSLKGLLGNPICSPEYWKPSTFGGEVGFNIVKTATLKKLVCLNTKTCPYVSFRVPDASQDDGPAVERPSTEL
PGHS-1 (COX-1), sequence (P23219 24-599, species assumed): as above
hemoglobin, sequence (P69905 2-142 limits assumed): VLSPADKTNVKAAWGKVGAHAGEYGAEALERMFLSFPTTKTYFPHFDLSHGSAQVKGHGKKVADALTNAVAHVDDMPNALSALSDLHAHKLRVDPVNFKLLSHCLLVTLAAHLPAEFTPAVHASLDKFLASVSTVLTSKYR
hemoglobin, sequence (P68871 2-147 limits assumed): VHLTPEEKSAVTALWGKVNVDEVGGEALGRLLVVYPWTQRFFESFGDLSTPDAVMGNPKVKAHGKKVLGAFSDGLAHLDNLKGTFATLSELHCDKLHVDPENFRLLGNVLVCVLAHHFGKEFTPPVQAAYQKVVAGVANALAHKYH

Take “2-(dimethylamino)pyrimidin-5-ol [DM-Pym]”: the “cytotoxicity in HepG2 cell line stimulated with ethanol” value in [1] is “not cytotoxic”. For the same molecule, the “times more potent as an inhibitor of PGHS-1 than acetaminophen” value in data set [2] (relative to acetaminophen) is listed as 10 times. Moreover, the “times more potent as an inhibitor of PGHS-2 than acetaminophen” value in data set [3] (relative to acetaminophen) is 10 times. Moreover, in [4] (relative to acetaminophen), the “times more potent in reducing ferryl myoglobin than acetaminophen” value is recorded as 14 times.
Usually EC50 stands for the concentration that produces a half-maximal response. A word on the IC50: it is the concentration at which inhibition is half-maximal. Turning to `O=C1NCc2cc(O)cnc2N1` [Analog 12], the EC50 in data set [5] stood at 4760 ± 36 µM. Also, the IC50 was determined as 1.15 ± 0.3 µM in data set [6] (setting [12]), 1.2 ± 0.1 µM in data set [6] (setting [13]), 451 µM in data set [8] (setting [14]) and 451 ± 35 µM in [8] (setting [15]). Besides, the “Microsomal stability % left” value in [7] turned out to be 158 ± 33%.
Take `Cc1nc2c(c(C)c1O)CNC(=O)N2` [Analog 13]: in [5], the concentration for a half-maximal effect (EC50) stood at 2960 ± 284 µM. In addition, the IC50 in data set [6] (setting [12]) was 2.29 ± 0.6 µM; in data set [6] (setting [13]) it was 2.3 ± 0.4 µM; in [8] (setting [14]) it was > 1000 µM; in data set [8] (setting [15]), > 1000 µM. Further, the “Microsomal stability % left” value in data set [7] stood at 87 ± 7%. In addition, in data set [8] (at concentrations up to 1 mM), the “inhibition of COX-1, in words” value is given as “not able to significantly inhibit”.
On to `Cc1nc2c(c(C)c1O)COC(=O)N2` [Analog 14], for which the EC50 in data set [5] was > 5000 µM. The IC50 in [6] (setting [12]) turned out to be 5.34 ± 0.1 µM; in [6] (setting [13]), 5.3 ± 0.1 µM; in [8] (setting [14]) it was 198 ± 50.1 µM; in [8] (setting [15]), 198 ± 25 µM. Also, the “Microsomal stability % left” value in data set [7] is on record as 97 ± 3%.
As for `CC(=O)Nc1ccc(O)cc1` [ApAP, acetaminophen], the 50% inhibitory concentration (IC50) was 250 µM in data set [2], 372 µM in data set [10] and 15 µM in [11]. Also, the “lipid peroxidation in rhabdomyolysis model” value in data set [9] (listed as Acetaminophen) is “blocked”; in [9] (listed as acetaminophen), “blocks”. Further, the “renal failure in rhabdomyolysis model” value in [9] (listed as Acetaminophen) is “prevented”; in [9] (listed as acetaminophen) it was “blocks”. Besides, the EC50 in data set [5] was 594 ± 147 µM.
With `CN(C)c1ncc(O)cn1` [DM-Pym, 2-(dimethylamino)pyrimidin-5-ol], in data set [1], the “cytotoxicity in HepG2 cell line stimulated with ethanol” value is “does not cause cytotoxicity”. The molecule also returned an IC50 in data set [2] of 21 µM. In data set [3], the “inhibition of PGHS-2 (COX-2), in words” value is “equally effective”. The “potency in reducing ferryl myoglobin, in words” value in data set [4] (compared with acetaminophen) is “remarkably more potent than acetaminophen”.
Consider `CN(C)c1ccc(O)cn1` [DM-Pyr, 6-(dimethylamino)pyridin-3-ol], for which the “inhibition of PGHS-2 (COX-2), in words” value in [3] is reported as “only a weak inhibitor”.
